# From patent US10898577B2, “Conjugate of ginsenoside compound K and glycol chitosan and an anti-tumor use thereof” (priority 2015, dated 2021)
# Test system: HT-29 (human colon cancer) cell line
# Experimental: To observe the anticancer activity of the GC-CK conjugates, the cytotoxicity of pure GC, CK, and GC-CK conjugates were confirmed in anticancer cells by MTT assay.
# Specifically, the HT-29 (human colon cancer) cell line was purchased from the Korean Cell Line Bank (Seoul, Korea) and cultured in RPMI 1640 medium (Welgene, Inc.) containing 1% (w/v) penicillin-streptomycin (Welgene, Inc.) and 10% (v/v) FBS (Welgene, Inc.) in 5% CO2 and 95% humidity at 37° C. The cells were inoculated at a density of 2×10^4 cells/well in 96-well plates (SPL Life Sciences, Korea). After growing for 24 h, the culture medium was replaced with the culture medium containing 100 μL, of various concentrations of GC, standard GC, and GC-CK and cultured for 24 h at 37° C. Next, 10 μL of 3-(4, 5-dimethylthiazol-2-yl)-2, 5-diphenyl-tertazolium bromide) (MTT) was added and the plates were cultured for 3 hours at 37° C. The culture medium was then removed and blue formazan crystals were dissolved with 100 μL of DMSO. The optical density was measured at 570 nm using a Synergy HT multidetection microplate reader (Molecular Devices, BioTek Instruments, Winooski, Vt., USA).
substance,measurement,value
Glycol chitosan [GC],cytotoxicity in HT29 cells,did not exhibit any cytotoxicity
